According to ChEMBL document CHEMBL4828717, “Synthetic cajaninstilbene acid derivatives eradicate methicillin-resistant Staphylococcus aureus persisters and biofilms” (Eur J Med Chem, 2021):

Tests used:
[1] = Toxicity in BALB/c mouse infected with methicillin-resistant Staphylococcus aureus ATCC 43300 assessed as damage in lung at 50 to 100 mg/kg, sc administered every 24 hrs for 4 days by H&E staining based light microscopic analysis; assay type: organism-based; conditions: in vivo, dose 50-100 mg/kg
[2] = Toxicity in BALB/c mouse infected with methicillin-resistant Staphylococcus aureus ATCC 43300 assessed as damage in spleen at 50 to 100 mg/kg, sc administered every 24 hrs for 4 days by H&E staining based light microscopic analysis; assay type: organism-based; conditions: in vivo, dose 50-100 mg/kg
[3] = Toxicity in BALB/c mouse infected with methicillin-resistant Staphylococcus aureus ATCC 43300 assessed as damage in kidney at 50 to 100 mg/kg, sc administered every 24 hrs for 4 days by H&E staining based light microscopic analysis; assay type: organism-based; conditions: in vivo, dose 50-100 mg/kg
[4] = Toxicity in BALB/c mouse infected with methicillin-resistant Staphylococcus aureus ATCC 43300 assessed as damage in liver at 50 to 100 mg/kg, sc administered every 24 hrs for 4 days by H&E staining based light microscopic analysis; assay type: organism-based; conditions: in vivo, dose 50-100 mg/kg
[5] = Toxicity in BALB/c mouse infected with methicillin-resistant Staphylococcus aureus ATCC 43300 assessed as damage in heart at 50 to 100 mg/kg, sc administered every 24 hrs for 4 days by H&E staining based light microscopic analysis; assay type: organism-based; conditions: in vivo, dose 50-100 mg/kg
[6] = system: Staphylococcus aureus; experiment: Antibacterial activity against methicillin resistant Staphylococcus aureus ATCC49008 assessed as reduction in microbial growth after 16 to 18 hrs by microbroth dilution method; assay type: functional; conditions: time 16-18 hrs
[7] = system: Staphylococcus aureus; experiment: Antibacterial activity against methicillin resistant Staphylococcus aureus ATCC48966 assessed as reduction in microbial growth after 16 to 18 hrs by microbroth dilution method; assay type: functional; conditions: time 16-18 hrs
[8] = system: Pseudomonas aeruginosa; experiment: Antibacterial activity against Pseudomonas aeruginosa ATCC27853 assessed as reduction in microbial growth after 16 to 18 hrs by microbroth dilution method; assay type: functional; conditions: time 16-18 hrs
[9] = system: Staphylococcus aureus; experiment: Antibacterial activity against methicillin resistant Staphylococcus aureus ATCC48073 assessed as reduction in microbial growth after 16 to 18 hrs by microbroth dilution method; assay type: functional; conditions: time 16-18 hrs
[10] = system: Enterococcus faecalis; experiment: Antibacterial activity against Enterococcus faecalis ATCC29212 assessed as reduction in microbial growth after 16 to 18 hrs by microbroth dilution method; assay type: functional; conditions: ATCC 29212, time 16-18 hrs
[11] = system: Staphylococcus aureus; experiment: Antibacterial activity against methicillin resistant Staphylococcus aureus ATCC515992 assessed as reduction in microbial growth after 16 to 18 hrs by microbroth dilution method; assay type: functional; conditions: time 16-18 hrs
[12] = Cytotoxicity against mouse RAW264.7 cells assessed as cell viability at 10 ug/ml measured after 24 hrs by MTT assay; assay type: cell-based; conditions: RAW264.7 cells, at 10 µg/mL, read-out: Activity
[13] = system: Staphylococcus aureus; experiment: Antibacterial activity against methicillin resistant Staphylococcus aureus ATCC 43300 assessed as reduction in microbial growth after 16 to 18 hrs by microbroth dilution method; assay type: functional; conditions: time 16-18 hrs
[14] = system: Staphylococcus aureus; experiment: Antibacterial activity against methicillin resistant Staphylococcus aureus ATCC49025 assessed as reduction in microbial growth after 16 to 18 hrs by microbroth dilution method; assay type: functional; conditions: time 16-18 hrs
[15] = system: Staphylococcus aureus; experiment: Antibacterial activity against methicillin resistant Staphylococcus aureus ATCC48706 assessed as reduction in microbial growth after 16 to 18 hrs by microbroth dilution method; assay type: functional; conditions: time 16-18 hrs
[16] = system: Staphylococcus aureus; experiment: Antibacterial activity against methicillin resistant Staphylococcus aureus ATCC513045 assessed as reduction in microbial growth after 16 to 18 hrs by microbroth dilution method; assay type: functional; conditions: time 16-18 hrs
[17] = system: L02; experiment: Cytotoxicity against human L02 cells assessed as cell viability at 10 ug/ml measured after 24 hrs by MTT assay; assay type: cell-based; conditions: l02, 24 h, dose 10 µg/ml
[18] = system: Staphylococcus aureus; experiment: Antibacterial activity against methicillin resistant Staphylococcus aureus ATCC 52056 assessed as reduction in microbial growth after 16 to 18 hrs by microbroth dilution method; assay type: functional; conditions: time 16-18 hrs
[19] = system: Staphylococcus aureus; experiment: Antibacterial activity against methicillin resistant Staphylococcus aureus ATCC 62202 assessed as reduction in microbial growth after 16 to 18 hrs by microbroth dilution method; assay type: functional; conditions: time 16-18 hrs
[20] = system: Staphylococcus aureus; experiment: Antibacterial activity against methicillin resistant Staphylococcus aureus ATCC49800 assessed as reduction in microbial growth after 16 to 18 hrs by microbroth dilution method; assay type: functional; conditions: time 16-18 hrs
[21] = system: Staphylococcus aureus; experiment: Antibacterial activity against Staphylococcus aureus ATCC 25923 assessed as reduction in microbial growth after 16 to 18 hrs by microbroth dilution method; assay type: functional; conditions: time 16-18 hrs
[22] = system: Escherichia coli; experiment: Antibacterial activity against Escherichia coli ATCC25922 assessed as reduction in microbial growth after 16 to 18 hrs by microbroth dilution method; assay type: functional; conditions: ATCC 25922, time 16-18 hrs

**Q.** Which results are given for `CN[C@H](CC(C)C)C(=O)N[C@H]1C(=O)N[C@@H](CC(N)=O)C(=O)N[C@H]2C(=O)N[C@H]3C(=O)N[C@H](C(=O)N[C@H](C(=O)O)c4cc(O)cc(O)c4-c4cc3ccc4O)[C@H](O)c3ccc(c(Cl)c3)Oc3cc2cc(c3O[C@@H]2O[C@H](CO)[C@@H](O)[C@H](O)[C@H]2O[C@H]2C[C@](C)(N)[C@H](O)[C@H](C)O2)Oc2ccc(cc2Cl)[C@H]1O` [VANCOMYCIN]?
**A.** Activity [1]: Non-Toxic; Activity [2]: Non-Toxic; Activity [3]: Non-Toxic; Activity [4]: Non-Toxic; Activity [5]: Non-Toxic

**Q.** What does the source list for `CC(C)=CCc1c(OC2CCOCC2)cc(/C=C/c2ccc(F)cc2)c(C(=O)O)c1O`?
**A.** MIC [6]: 16 µg/mL; MIC [7]: 16 µg/mL; MIC [8]: > 32 µg/mL; MIC [9]: 16 µg/mL; MIC [10]: > 32 µg/mL; MIC [11]: 32 µg/mL; viability at 24 h, 10 ug/ml [12]: > 60%; MIC [13]: 1 µg/mL; MIC [14]: 16 µg/mL; MIC [15]: 16 µg/mL; MIC [16]: 16 µg/mL; Activity [17]: Toxic; MIC [18]: 8 µg/mL; MIC [19]: 32 µg/mL; MIC [20]: 16 µg/mL; MIC [21]: 16 µg/mL; MIC [22]: > 32 µg/mL
